In paper PMC10669340, “Bioactive Compounds from an Endophytic Pezicula sp. Showing Antagonistic Effects against the Ash Dieback Pathogen” (Biomolecules, 2023):
≈ marks a conversion by molar mass, not a printed value. Where two headings read alike, the source gives them in different places. Marks after values point to notes of the source that are not given here.

Key:
[1] = tested on: H. fraxineus (isolate RH02-T6-B4-2); assay: Agar disc diffusion assay; type: cell-based, Hymenoscyphus fraxineus; settings: 6 mm disc, 7 days, 21 °C
Method: The antifungal activity of the isolated compounds against H. fraxineus was assessed by the disc diffusion method using 9 cm diameter petri dishes as previously described […] Three sterile filter paper discs per plate were gently placed on dried potato–dextrose agar. The fungicide nystatin was applied as the positive control (20 and 50 µg/paper disc) and methanol as the negative control (10 µL/paper disc). The test plates were incubated at 21 °C for 7 days, the inhibition diameters were measured, and the activity was evaluated compared to nystatin.
Figure S44: Agar disc (6 mm diam.) diffusion assay of compound CJ-17,572 (1) against H. fraxineus RH02-T6-B4-2, grown in 9-cm petri dishes on agar-based PD
medium with H. fraxineus, N - positive control nystatin, M - negative control methanol, CJ – 1.
Table S1. Antifungal activity of the compounds 1-6. n.i.: no inhibition, n.t.: not tested.
Compounds Amount ( µg/paper disc)
Peziculastatin n.t. n.i. 8 mm
Mycorrhizin A 19 mm 31 mm n.t.
Cryptosporioptide A n.t. n.i. n.i.
Cryptosporioptide B n.t. n.i. 8 mm
Cryptosporioptide C n.t. n.i. n.i.
Nystatin 21 mm 24 mm n.t.

[2] = tested on: Staphylococcus aureus DSM 1104 preformed biofilm; assay: Biofilm assay, dispersal of preformed biofilm; type: cell-based; set-up: Antibiofilm activity, preformed S. aureus: unit not given here; settings: for Antibiofilm activity, preformed S. aureus: (/) no activity; for efficacy of biofilm eradication, preformed biofilms of S. aureus: concentrations between 15.6 µg/mL–125 µg/mL
Method: Staphylococcus aureus DSM 1104 from −20 °C stock was cultured in 25 mL CASO (Casein–Peptone Soymeal–Peptone; peptone from casein 15 g/L, peptone from soy flour 5 g/L, NaCl 5 g/L, pH 7.3) medium at 37 °C at 100 rpm in 250 mL for 20 h. The precultured suspension of S. aureus was adjusted so that its OD600 matched the turbidity of a 0.001 McFarland standard. S. aureus was incubated in 96-well tissue microtiter plates (TPP tissue culture ref.no 92196, Switzerland) for 24 h at 150 rpm in […] CASO medium with 4% glucose broth. The supernatant was removed from the wells and 150 μL of the respective media (fresh) was added to the wells, together with the serially diluted compounds (250–2 μg/mL). The plates were incubated for a further 24 h at 37 °C. Staining of the biofilms was carried out as described previously. Standard deviation (SD) of two repeats with duplicates each were 10% or less. Methanol (2.5%) and microporenic acid A (250–2 μg/mL) were used as solvent and positive controls. Error bars indicate SD with duplicates in two biological repeats.

[3] = tested on: Rhodotorula glutinis DSM 10134; assay: Antimicrobial serial dilution assay (MIC); type: cell-based; settings: Rhodotorula glutinis DSM 10134; n.i.: no inhibition
Method: (§1) The antimicrobial activity (minimum inhibitory concentration, MIC) of the compounds was determined against Acinetobacter baumannii DSM 30008, Bacillus subtilis DSM 10, Chromobacterium violaceum DSM 30191, Escherichia coli DSM 1116, Mycobacterium smegmatis ATCC 700084, Pseudomonas aeruginosa PA14, Staphylococcus aureus DSM 346, Candida albicans DSM1665, Mucor hiemalis DSM 2656, Pichia anomala DSM 6766, Rhodotorula glutinis DSM 10134 and Schizosaccharomyces pombe DSM 70572 in a serial dilution assay as previously described.

[4] = tested on: Staphylococcus aureus DSM 346; assay: Antimicrobial serial dilution assay (MIC); type: cell-based; settings: Staphylococcus aureus DSM 346; n.i.: no inhibition
Method: as §1

Mucor hiemalis DSM 2656 = assay: Antimicrobial serial dilution assay (MIC); type: cell-based; settings: for Minimum inhibitory concentration (MIC): Mucor hiemalis DSM 2656, n.i.: no inhibition
Method: as §1

[5] = tested on: Mycobacterium smegmatis ATCC 700084; assay: Antimicrobial serial dilution assay (MIC); type: cell-based; settings: Mycobacterium smegmatis ATCC 700084; n.i.: no inhibition
Method: as §1

[6] = tested on: Pseudomonas aeruginosa PA14; assay: Antimicrobial serial dilution assay (MIC); type: cell-based; settings: n.i.: no inhibition
Method: as §1

[7] = tested on: Escherichia coli DSM 1116; assay: Antimicrobial serial dilution assay (MIC); type: cell-based; settings: n.i.: no inhibition
Method: as §1

Candida albicans DSM1665 = assay: Antimicrobial serial dilution assay (MIC); type: cell-based; settings: n.i.: no inhibition
Method: as §1

Bacillus subtilis DSM 10 = assay: Antimicrobial serial dilution assay (MIC); type: cell-based; settings: Bacillus subtilis DSM 10, n.i.: no inhibition
Method: as §1

[8] = tested on: Chromobacterium violaceum DSM 30191; assay: Antimicrobial serial dilution assay (MIC); type: cell-based; settings: for Minimum inhibitory concentration (MIC): n.i.: no inhibition
Method: as §1

[9] = tested on: Schizosaccharomyces pombe DSM 70572; assay: Antimicrobial serial dilution assay (MIC); type: cell-based; settings: Schizosaccharomyces pombe DSM 70572; n.i.: no inhibition
Method: as §1

[10] = tested on: Acinetobacter baumannii DSM 30008; assay: Antimicrobial serial dilution assay (MIC); type: cell-based; settings: for Minimum inhibitory concentration (MIC): n.i.: no inhibition
Method: as §1

Pichia anomala DSM 6766 = assay: Antimicrobial serial dilution assay (MIC); type: cell-based; settings: Pichia anomala DSM 6766; n.i.: no inhibition
Method: as §1

[11] = tested on: Candida albicans DSM 11225 biofilm; assay: Biofilm assay, inhibition of biofilm formation; type: cell-based; set-up: unit not given here; settings: (/) no activity
Method: The stock of fungal pathogen Candida albicans DSM 11225 from −20 °C was cultured in 25 mL YPD (Yeast extract Peptone Dextrose; dextrose 20 g/L, peptone 20 g/L, yeast extract 10 g/L) medium in a 250 mL flask at 30 °C with shaking 100 rpm for 18 h. Turbidity of the broth was measured and diluted to match the turbidity of a 0.05 McFarland standard in RPMI 1640 medium (Gibco, New York, NY, USA, Thermo Fisher Scientific). Afterwards, 150 μL of the fungal dispersion was added into each well of a 96-well microtiter plate (Falcon no. 351172, Thermo Fisher Scientific) and further incubated for 90 min. The supernatant was removed, and the plate was washed once by using PBS buffer. Compounds were serially diluted in 150 μL in fresh medium to concentrations of 250–2 μg/mL. Staining and analysis were conducted as previously described. Methanol (2.5%) and farnesol (250–2 μg/mL) were used as solvent and positive controls. Error bars indicate SD with duplicates in two biological repeats.

MTT cytotoxicity assay = type: cell-based; settings: read-out: Cytotoxic activity (IC50)
Method: The in vitro cytotoxicity assay was performed using the MTT (3-(4,5-dimethylthiayol-2-yl)-2,5-diphenyltetrazolium bromide) test in 96-well microtiter plates as previously described.

[12] = 50 µg/paper disc, n.i.: no inhibition
[13] = 100 µg/paper disc, n.i.: no inhibition

## CCC(C(=O)O)C(=O)OC1C2(C)Oc3ccc(-c4ccc5c(c4O)C(=O)C4=C(O)C6OC6(C)C(OC(=O)CC(=O)O)C4(C)O5)c(O)c3C(=O)C2=C(O)C2OC21C (stereo not drawn) [Compound 5, Cryptosporioptide B]
[1]; [12]
  Antifungal activity, inhibition diameter: n.i.
[1]; [13]
  Antifungal activity, inhibition diameter: 8 mm
[2]; 7.8 µg/mL
  Antibiofilm activity, preformed S. aureus: 54
[2]; 15.6 µg/mL
  Antibiofilm activity, preformed S. aureus: 75
[2]; 62.5 µg/mL
  Antibiofilm activity, preformed S. aureus: 83
[2]; 125 µg/mL
  Antibiofilm activity, preformed S. aureus: 81
[2]; 250 µg/mL
  Antibiofilm activity, preformed S. aureus: 49
[2]
  efficacy of biofilm eradication, preformed biofilms of S. aureus: 70–80%
[3]
  Minimum inhibitory concentration (MIC): n.i.
[4]
  Minimum inhibitory concentration (MIC): n.i.
Mucor hiemalis DSM 2656
  Minimum inhibitory concentration (MIC): n.i.
[5]
  Minimum inhibitory concentration (MIC): n.i.
[6]
  Minimum inhibitory concentration (MIC): n.i.
[7]
  Minimum inhibitory concentration (MIC): n.i.
Candida albicans DSM1665
  Minimum inhibitory concentration (MIC): n.i.
Bacillus subtilis DSM 10
  Minimum inhibitory concentration (MIC): n.i.
[8]
  Minimum inhibitory concentration (MIC): n.i.
[9]
  Minimum inhibitory concentration (MIC): n.i.
[10]
  Minimum inhibitory concentration (MIC): n.i.
Pichia anomala DSM 6766
  Minimum inhibitory concentration (MIC): n.i.
[11]; 62.5 µg/mL
  Antibiofilm activity, C. albicans: 49
[11]; 125 µg/mL
  Antibiofilm activity, C. albicans: 50
[11]; 250 µg/mL
  Antibiofilm activity, C. albicans: 74

## CCC(C(=O)O)C(=O)OC1C2(C)Oc3ccc(-c4ccc5c(c4O)C(=O)C4=C(O)C6OC6(C)C(OC(=O)C(CC)C(=O)O)C4(C)O5)c(O)c3C(=O)C2=C(O)C2OC21C (stereo not drawn) [Compound 6, Cryptosporioptide C]
[1]; [12]
  Antifungal activity, inhibition diameter: n.i.
[1]; [13]
  Antifungal activity, inhibition diameter: n.i.
[2]; 2 µg/mL
  Antibiofilm activity, preformed S. aureus: 39
[2]; 3.9 µg/mL
  Antibiofilm activity, preformed S. aureus: 49
[2]; 7.8 µg/mL
  Antibiofilm activity, preformed S. aureus: 68
[2]; 15.6 µg/mL
  Antibiofilm activity, preformed S. aureus: 72
[2]; 31.3 µg/mL
  Antibiofilm activity, preformed S. aureus: 78
[2]; 62.5 µg/mL
  Antibiofilm activity, preformed S. aureus: 78
[2]; 125 µg/mL
  Antibiofilm activity, preformed S. aureus: 77
[2]; 250 µg/mL
  Antibiofilm activity, preformed S. aureus: 23
[2]
  efficacy of biofilm eradication, preformed biofilms of S. aureus: 70–80%
[2]; even up to 2 µg/mL
  dispersal effects on preformed biofilms of S. aureus: 40%
[3]
  Minimum inhibitory concentration (MIC): n.i.
[4]
  Minimum inhibitory concentration (MIC): n.i.
Mucor hiemalis DSM 2656; Mucor hiemalis, DSM2656, read-out: Minimum inhibitory concentration (MIC)
  MIC: 66.6 µg/mL (≈ 82.6 µM)
[5]
  Minimum inhibitory concentration (MIC): n.i.
[6]
  Minimum inhibitory concentration (MIC): n.i.
[7]
  Minimum inhibitory concentration (MIC): n.i.
Candida albicans DSM1665
  Minimum inhibitory concentration (MIC): n.i.
Bacillus subtilis DSM 10
  Minimum inhibitory concentration (MIC): n.i.
[8]
  Minimum inhibitory concentration (MIC): n.i.
[9]
  Minimum inhibitory concentration (MIC): n.i.
[10]
  Minimum inhibitory concentration (MIC): n.i.
Pichia anomala DSM 6766
  Minimum inhibitory concentration (MIC): n.i.
[11]; 62.5 µg/mL
  Antibiofilm activity, C. albicans: 40
[11]; 125 µg/mL
  Antibiofilm activity, C. albicans: 62
[11]; 250 µg/mL
  Antibiofilm activity, C. albicans: 78

## CC(C)=CCC/C(C)=C/CC/C(C)=C/CO [Farnesol, farnesol, reference compound]
[11]; 15.6 µg/mL
  Antibiofilm activity, C. albicans: 55
[11]; 31.3 µg/mL
  Antibiofilm activity, C. albicans: 66
[11]; 62.5 µg/mL
  Antibiofilm activity, C. albicans: 71
[11]; 250 µg/mL
  Antibiofilm activity, C. albicans: 81

## O=C(O)c1cn(C2CC2)c2cc(N3CCNCC3)c(F)cc2c1=O [ciprofloxacin, reference compound]
[10]; DSM30008, n.i.: no inhibition, read-out: Minimum inhibitory concentration (MIC)
  MIC: 0.26 µg/mL (≈ 0.785 µM)

## C/C(=C\c1csc(C)n1)[C@@H]1C[C@@H]2O[C@]2(C)CCC[C@H](C)[C@H](O)[C@@H](C)C(=O)C(C)(C)[C@@H](O)CC(=O)O1 [epothilone B, reference compound]
MTT cytotoxicity assay; human, A431
  IC50: 0.065 nM
MTT cytotoxicity assay; human, A549
  IC50: 0.053 nM
MTT cytotoxicity assay; human, KB3.1, n.c.: no cytotoxicity
  IC50: 0.045 nM
MTT cytotoxicity assay; human, MCF-7
  IC50: 0.083 nM
MTT cytotoxicity assay; human, PC-3
  IC50: 0.28 nM
MTT cytotoxicity assay; human, SKOV-3
  IC50: 0.18 nM
MTT cytotoxicity assay; mouse, L929, n.c.: no cytotoxicity
  IC50: 0.43 nM

## NC[C@H]1O[C@H](O[C@H]2[C@H](O)[C@@H](O[C@H]3O[C@H](CO)[C@@H](O)[C@H](N)[C@H]3O)[C@H](N)C[C@@H]2N)[C@H](O)[C@@H](O)[C@@H]1O [kanamycin, reference compound]
[5]
  Minimum inhibitory concentration (MIC): 1.7 ^d µg/mL

## C[C@@H]1[C@H](O)[C@@H](C)/C=C/C=C/CC/C=C/C=C/C=C/C=C/C(O[C@H]2O[C@H](C)[C@@H](O)[C@H](N)[C@@H]2O)CC2O[C@](O)(CC(O)C(O)CCC(O)CC(O)CC(O)CC(=O)O[C@H]1C)CC(O)C2C(=O)O (stereo partly drawn) [nystatin, reference compound]
[1]; 20 µg/paper disc
  Antifungal activity, inhibition diameter: 21 mm
[1]; [12]
  Antifungal activity, inhibition diameter: 24 mm
[3]
  Minimum inhibitory concentration (MIC): 8.3 ^e µg/mL
Mucor hiemalis DSM 2656
  Minimum inhibitory concentration (MIC): 16.6 ^e µg/mL
Candida albicans DSM1665
  Minimum inhibitory concentration (MIC): 16.6 ^e µg/mL
[9]
  Minimum inhibitory concentration (MIC): 16.6 ^e µg/mL
Pichia anomala DSM 6766
  Minimum inhibitory concentration (MIC): 16.6 ^e µg/mL

## CN(C)[C@@H]1C(O)=C(C(N)=O)C(=O)[C@@]2(O)C(O)=C3C(=O)c4c(O)cccc4[C@@](C)(O)[C@H]3[C@H](O)[C@@H]12 [oxytetracycline, reference compound]
Bacillus subtilis DSM 10; DSM10, read-out: Minimum inhibitory concentration (MIC)
  MIC: 16.6 µg/mL (≈ 36.1 µM)
[8]; DSM30191, n.i.: no inhibition, read-out: Minimum inhibitory concentration (MIC)
  MIC: 0.83 µg/mL (≈ 1.8 µM)

## gentamycin [reference compound]
[4]
  Minimum inhibitory concentration (MIC): 0.21 ^b µg/mL
[6]
  Minimum inhibitory concentration (MIC): 0.21 ^b µg/mL
[7]
  Minimum inhibitory concentration (MIC): 0.83 ^b µg/mL
